Laboratory results published in paper PMC4303209, “A novel phosphatidylinositol 3-kinase (PI3K) inhibitor directs a potent FOXO-dependent, p53-independent cell cycle arrest phenotype characterized by the differential induction of a subset of FOXO-regulated genes” (Breast Cancer Research : BCR, 2014).

Tested on: MCF-7 breast cancer cells
Assay: Microarray gene expression analysis (Agilent whole human genome 4 x 44K; compound vs DMSO, LIMMA log2 fold change)
Assay type: cell-based
[1] = MCF-7, 100nM, six hours, 1.5-fold expression change threshold

Which results are given for `Cn1ncc2c(N3CCOCC3)nc(-c3cccc(O)c3)nc21` [ETP-45658]?
ESCO1 log2FC (Gene 114799, cell cycle genes): 0.560; UHRF2 log2FC (Gene 115426, cell cycle genes): 0.500; KLHDC3 log2FC (Gene 116138, cell cycle genes): -0.048; CNTROB log2FC (Gene 116840, cell cycle genes): -0.102; NEDD1 log2FC (Gene 121441, cell cycle genes): 0.443; HEXIM2 log2FC (Gene 124790, cell cycle genes): 0.577; ARL8A log2FC (Gene 127829, cell cycle genes): 0.446; UHMK1 log2FC (Gene 127933, cell cycle genes): -0.099; IQGAP3 log2FC (Gene 128239, cell cycle genes): 0.155; NUP35 log2FC (Gene 129401, cell cycle genes): -0.169; MITD1 log2FC (Gene 129531, cell cycle genes): 0.836; NUDT16 log2FC (Gene 131870, cell cycle genes): -0.327; ZFP42 log2FC (Gene 132625, cell cycle genes): 0.031; JMY log2FC (Gene 133746, cell cycle genes): 1.016; HUS1B log2FC (Gene 135458, cell cycle genes): -0.791; NEK7 log2FC (Gene 140609, cell cycle genes): 0.053; CTCFL log2FC (Gene 140690, cell cycle genes): -0.021; PSMA8 log2FC (Gene 143471, cell cycle genes): 0.068; SESN3 log2FC (Gene 143686, cell cycle genes): 0.057; PIWIL4 log2FC (Gene 143689, cell cycle genes): 0.405; E2F7 log2FC (Gene 144455, cell cycle genes): -0.474; RAD9B log2FC (Gene 144715, cell cycle genes): 0.061; KCTD11 log2FC (Gene 147040, cell cycle genes): 0.142; PYHIN1 log2FC (Gene 149628, cell cycle genes): -0.052; PPP1R1C log2FC (Gene 151242, cell cycle genes): 0.132; SGOL2 log2FC (Gene 151246, cell cycle genes): 0.811; SGOL1 log2FC (Gene 151648, cell cycle genes): 0.489; ROPN1B log2FC (Gene 152015, cell cycle genes): 0.058; DAB2IP log2FC (Gene 153090, cell cycle genes): -0.220; CDCA2 log2FC (Gene 157313, cell cycle genes): 0.547; ESCO2 log2FC (Gene 157570, cell cycle genes): 0.730; SASS6 log2FC (Gene 163786, cell cycle genes): 0.483; WBP2NL log2FC (Gene 164684, cell cycle genes): -0.063; THAP5 log2FC (Gene 168451, cell cycle genes): 0.256; FLCN log2FC (Gene 201163, cell cycle genes): 0.968; STRA13 log2FC (Gene 201254, cell cycle genes): -0.358; TUBB log2FC (Gene 203068, cell cycle genes): -0.709; REEP3 log2FC (Gene 221035, cell cycle genes): -0.240; C6orf89 log2FC (Gene 221477, cell cycle genes): -0.508; SPDYA log2FC (Gene 245711, cell cycle genes): -0.071; CDC26 log2FC (Gene 246184, cell cycle genes): -0.688; ASPM log2FC (Gene 259266, cell cycle genes): 1.100; SLC39A5 log2FC (Gene 283375, cell cycle genes): -0.022; GAS2L3 log2FC (Gene 283431, cell cycle genes): 0.617; NSMCE2 log2FC (Gene 286053, cell cycle genes): 1.151; LIN9 log2FC (Gene 286826, cell cycle genes): 1.274; TMPRSS11A log2FC (Gene 339967, cell cycle genes): 0.046; NUP43 log2FC (Gene 348995, cell cycle genes): 0.749; APITD1 log2FC (Gene 378708, cell cycle genes): 0.144; SETD8 log2FC (Gene 387893, cell cycle genes): 0.093; PIM3 log2FC (Gene 415116, cell cycle genes): 0.693; PIWIL3 log2FC (Gene 440822, cell cycle genes): -0.066; expression of FOXO-dependent apoptosis genes including TNFSF10, BCL211 and FASLG (array) (MCF-7): did not significantly change; number of induced (upregulated) genes [1]: 1,549; number of repressed (downregulated) genes [1]: 989; CCND1, SPRY2 and MMP9 expression (array) (MCF-7, FOXO target genes): significantly downregulated; expression of CCNG2, KLHL24, DDIT3, CITED2 and RICTOR (array) (MCF-7, FOXO target genes): significantly upregulated; bound FOXO sites (transcription factor enrichment analysis) (MCF-7, upregulated genes): highly significant increase; MAD1L1 log2FC (cell cycle genes): -0.032; ACSL5 log2FC (gene ACSL5 (51703), apoptosis genes): 0.011; log2FC (gene ACTR1A (Gene 10121), cell cycle genes): -0.180; ADAMTS20 log2FC (gene ADAMTS20 (80070), apoptosis genes): 0.014; ADIPOQ log2FC (gene ADIPOQ (9370), apoptosis genes): 0.013; ADRA1A log2FC (gene ADRA1A (148), apoptosis genes): 0.060; AGTR2 log2FC (gene AGTR2 (186), apoptosis genes): 0.004; log2FC AKAP8 (gene AKAP8 (Gene 10270), cell cycle genes): -0.037; ALB log2FC (gene ALB (213), apoptosis genes): -0.050; ALOX12 log2FC (gene ALOX12 (239), apoptosis genes): 0.083; ALX3 log2FC (gene ALX3 (257), apoptosis genes): -0.018; ALX4 log2FC (gene ALX4 (60529), apoptosis genes): -0.043; log2FC (gene ANAPC13 (Gene 25847), cell cycle genes): -0.342; ANKRD13C log2FC (gene ANKRD13C (81573), apoptosis genes): 0.077; APBB1 log2FC (gene APBB1 (322), apoptosis genes): 0.078; APOH log2FC (gene APOH (350), apoptosis genes): -0.009; AQP1 log2FC (gene AQP1 (358), apoptosis genes): -0.015; ARHGAP10 log2FC (gene ARHGAP10 (79658), apoptosis genes): -0.010; ARHGEF6 log2FC (gene ARHGEF6 (9459), apoptosis genes): -0.041; ARHGEF16 log2FC (gene ARHGEF16 (27237), apoptosis genes): 0.078; ARHGEF18 log2FC (gene ARHGEF18 (23370), apoptosis genes): -0.051; ATOH1 log2FC (gene ATOH1 (474), apoptosis genes): -0.034; ATPIF1 log2FC (gene ATPIF1 (93974), apoptosis genes): 0.069; log2FC (gene ATR (Gene 545), cell cycle genes): 0.346; log2FC (gene BAD (Gene 572), cell cycle genes): 0.276; BCL2L10 log2FC (gene BCL2L10 (10017), apoptosis genes): -0.024; BDKRB2 log2FC (gene BDKRB2 (624), apoptosis genes): 0.060; BIRC2 log2FC (gene BIRC2 (329), apoptosis genes): 0.082; BIRC8 log2FC (gene BIRC8 (112401), apoptosis genes): -0.014; BMP2 log2FC (gene BMP2 (650), apoptosis genes): -0.038; log2FC (gene BMP4 (Gene 652), cell cycle genes): 0.407; BMP5 log2FC (gene BMP5 (653), apoptosis genes): 0.022; BOK log2FC (gene BOK (666), apoptosis genes): -0.021; log2FC (gene BRE (Gene 9577), cell cycle genes): -0.322; BTK log2FC (gene BTK (695), apoptosis genes): -0.064; log2FC (gene BUB1B (Gene 701), cell cycle genes): 0.344; C1QBP log2FC (gene C1QBP (708), apoptosis genes): 0.052; C3orf38 log2FC (gene C3orf38 (285237), apoptosis genes): -0.027; log2FC (gene CAMK2B (Gene 816), cell cycle genes): -0.123; CAPN3 log2FC (gene CAPN3 (825), apoptosis genes): 0.007; log2FC CAPN3 (gene CAPN3 (Gene 825), cell cycle genes): 0.007; CARD9 log2FC (gene CARD9 (64170), apoptosis genes): -0.027; CARD14 log2FC (gene CARD14 (79092), apoptosis genes): 0.026; log2FC (gene CASP3 (Gene 836), cell cycle genes): 0.546; CASP10 log2FC (gene CASP10 (843), apoptosis genes): -0.013; CASP12 log2FC (gene CASP12 (120329), apoptosis genes): 0.004; CCK log2FC (gene CCK (885), apoptosis genes): -0.026; CCL19 log2FC (gene CCL19 (6363), apoptosis genes): -0.021; log2FC (gene CCNB2 (Gene 9133), cell cycle genes): 0.253; log2FC (gene CCNH (Gene 902), cell cycle genes): 0.426; log2FC (gene CCNT2 (Gene 905), cell cycle genes): 0.221; CD38 log2FC (gene CD38 (952), apoptosis genes): -0.014; CD40LG log2FC (gene CD40LG (959), apoptosis genes): -0.031; CD248 log2FC (gene CD248 (57124), apoptosis genes): -0.012; log2FC (gene CDC73 (Gene 79577), cell cycle genes): 0.443; CDH1 log2FC (gene CDH1 (999), apoptosis genes): 0.047; log2FC CDH13 (gene CDH13 (Gene 1012), cell cycle genes): -0.017; log2FC CDK2AP1 (gene CDK2AP1 (Gene 8099), cell cycle genes): -0.041; CDK5 log2FC (gene CDK5 (1020), apoptosis genes): -0.089; log2FC CDK5RAP1 (gene CDK5RAP1 (Gene 51654), cell cycle genes): 0.018; log2FC CDKN2B (gene CDKN2B (Gene 1030), cell cycle genes): 0.013; log2FC (gene CENPJ (Gene 55835), cell cycle genes): 0.293; log2FC (gene CENPK (Gene 64105), cell cycle genes): 0.519; log2FC (gene CETN3 (Gene 1070), cell cycle genes): 0.369; log2FC (gene CHEK2 (Gene 11200), cell cycle genes): 0.312; CHIA log2FC (gene CHIA (27159), apoptosis genes): -0.023; CIDEA log2FC (gene CIDEA (1149), apoptosis genes): -0.026; CLC log2FC (gene CLC (1178), apoptosis genes): -0.009; CLEC5A log2FC (gene CLEC5A (23601), apoptosis genes): -0.012; CLSPN log2FC (gene CLSPN (63967), apoptosis genes): 0.066; CNTFR log2FC (gene CNTFR (1271), apoptosis genes): -0.014; COL2A1 log2FC (gene COL2A1 (1280), apoptosis genes): 0.036; COL4A3 log2FC (gene COL4A3 (1285), apoptosis genes): 0.173; COMP log2FC (gene COMP (1311), apoptosis genes): -0.018; log2FC (gene COPS5 (Gene 10987), cell cycle genes): 0.503; log2FC (gene CRLF3 (Gene 51379), cell cycle genes): 0.438; log2FC (gene CSNK2B (Gene 1460), cell cycle genes): -0.263; CST3 log2FC (gene CST3 (1471), apoptosis genes): -0.001; CTLA4 log2FC (gene CTLA4 (1493), apoptosis genes): -0.015; CXCR4 log2FC (gene CXCR4 (7852), apoptosis genes): -0.044; CYR61 log2FC (gene CYR61 (3491), apoptosis genes): -0.093; DAPK2 log2FC (gene DAPK2 (23604), apoptosis genes): 0.127; DAXX log2FC (gene DAXX (1616), apoptosis genes): 0.003; log2FC DAXX (gene DAXX (Gene 1616), cell cycle genes): 0.003; log2FC (gene DCLRE1B (Gene 64858), cell cycle genes): -0.240; log2FC (gene DDX11 (Gene 1663), cell cycle genes): -0.382; DDX47 log2FC (gene DDX47 (51202), apoptosis genes): 0.072; DEDD2 log2FC (gene DEDD2 (162989), apoptosis genes): 0.036; DFFB log2FC (gene DFFB (1677), apoptosis genes): -0.039; log2FC (gene DIAPH2 (Gene 1730), cell cycle genes): 0.484; log2FC DIRAS3 (gene DIRAS3 (Gene 9077), cell cycle genes): 0.0064; DMPK log2FC (gene DMPK (1760), apoptosis genes): -0.105; DNM2 log2FC (gene DNM2 (1785), apoptosis genes): -0.047; DPF1 log2FC (gene DPF1 (8193), apoptosis genes): -0.079; log2FC ECD (gene ECD (Gene 11319), cell cycle genes): -0.009; EGR3 log2FC (gene EGR3 (1960), apoptosis genes): -0.131; EGR4 log2FC (gene EGR4 (1961), apoptosis genes): -0.00345; ELMO1 log2FC (gene ELMO1 (9844), apoptosis genes): 0.077; EPB41L3 log2FC (gene EPB41L3 (23136), apoptosis genes): -0.033
